Assay results from patent US20240132431A1, “METHOD FOR ALKYLATING ACIDIC FUNCTIONAL GROUP” (Chugai Seiyaku Kabushiki Kaisha, priority 2021, published 2024).

Biological target: T1, Bcl-2 protein (Recombinant Human Bcl-2 Protein) (Homo sapiens, UniProt P10415)
T1 construct: purchased Novus NBP2-34889
Test: Binding evaluation of mixture library compounds to Bcl-2 using AS-MS (affinity selection mass spectrometry)
Conditions: for ASMS ratio (%) n = 1: replicate n = 1; for ASMS ratio (%) n = 1 / ASMS ratio (%) n = 2: ASMS Ratio(%)=(A−C)/B×100; for ASMS ratio (%) n = 2: replicate n = 2
Method in brief: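 Affinity selection MS: Bcl-2 20 μM + 1200-cpd mixture, […]/cpd, Tris pH 7.4 buffer w/ Tween-20, DTT; 1 h 23° C dark; P-2 spin SEC; MeCN/MeOH extraction; RP LC/MS. ASMS Ratio(%) = (A−C)/B×100.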

[1] = AS-MS on the mixture of 1200 library compounds

T1 sequence (P10415 whole entry): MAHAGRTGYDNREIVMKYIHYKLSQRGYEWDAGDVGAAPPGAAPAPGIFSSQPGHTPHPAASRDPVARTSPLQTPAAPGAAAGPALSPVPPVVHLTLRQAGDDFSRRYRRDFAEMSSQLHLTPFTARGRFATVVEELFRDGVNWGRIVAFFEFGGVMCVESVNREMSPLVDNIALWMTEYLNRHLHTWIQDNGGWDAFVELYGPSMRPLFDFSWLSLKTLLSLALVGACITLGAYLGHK

| SMILES | ASMS ratio (%) n = 2 (AS-MS, mixture library, Bcl-2) [%] | ASMS ratio (%) n = 1 [1] [%] | ASMS ratio (%) n = 2 [1] [%] | ASMS ratio (%) (n = 1) | ASMS ratio (%) (n = 2) | further results |
| --- | --- | --- | --- | --- | --- | --- |
| CCOc1cncc(C#Cc2ccccc2C(=O)N2CCN(c3ccc(C(=O)NS(=O)(=O)CC45CC6CC(CC(C6)C4)C5)cc3)CC2)c1 [B2A030-01, N-(1-Adamantylmethylsulfonyl)-4-[4-[2-[2-(5-ethoxypyridin-3-yl)ethynyl]benzoyl]piperazin-1-yl]benzamide] | 0.3 |  |  |  |  | ASMS ratio (%) n = 1 (AS-MS, mixture library, Bcl-2): 0.0% |
| CCOc1cccc(-c2cc(OC)c(CN3CCN(c4ccc(C(=O)N(C)CC56CC7CC(CC(C7)C5)C6)nn4)CC3)c(OC)c2)c1 [B3A085-01, N-(1-Adamantylmethyl)-6-[4-[[4-(3-ethoxyphenyl)-2,6-dimethoxyphenyl]methyl]piperazin-1-yl]-N-methylpyridazine-3-carboxamide] |  | 5.3 | −7.1 |  |  |  |
| CCOc1cccc(-c2ccc(CN3CCN(c4ccc(C(=O)N(CC)CC)cc4)CC3)c3ccccc23)c1 [B4J065-01, 4-[4-[[4-(3-Ethoxyphenyl)naphthalen-1-yl]methyl]piperazin-1-yl]-N,N-diethylbenzamide] | 0.0 |  |  |  |  | ASMS ratio (%) n = 1 (AS-MS, mixture library, Bcl-2): 0.0% |
| CCOc1cncc(-c2ccc(CN3CCN(c4ccc(C(=O)N(C)CC56CC7CC(CC(C7)C5)C6)nn4)CC3)c(CC)c2)c1 [B3A076-01, N-(1-Adamantylmethyl)-6-[4-[[4-(5-ethoxypyridin-3-yl)-2-ethylphenyl]methyl]piperazin-1-yl]-N-methylpyridazine-3-carboxamide] |  | 6.5 | −0.9 |  |  |  |

Continued, in another order:

| ASMS ratio (%) n = 2 (AS-MS, mixture library, Bcl-2) [%] | ASMS ratio (%) n = 1 [1] [%] | ASMS ratio (%) n = 2 [1] [%] | ASMS ratio (%) (n = 1) | ASMS ratio (%) (n = 2) | SMILES | further results |
| --- | --- | --- | --- | --- | --- | --- |
|  | 2.2 | −1.0 |  |  | CCOc1cccc(-c2ccc(CN3CCN(c4ccc(C(=O)Nc5ccc(OC)cc5)cc4)CC3)c(OC)c2)c1 [B1O053-01, 4-[4-[[4-(3-Ethoxyphenyl)-2-methoxyphenyl]methyl]piperazin-1-yl]-N-(4-methoxyphenyl)benzamide] |  |
| 0.0 |  |  |  |  | CCOc1cccc(C#Cc2ccccc2C(=O)N2CCN(c3ccc(C(=O)NS(=O)(=O)CC45CC6CC(CC(C6)C4)C5)nn3)CC2)c1 [B2A007-01, N-(1-Adamantylmethylsulfonyl)-6-[4-[2-[2-(3-ethoxyphenyl)ethynyl]benzoyl]piperazin-1-yl]pyridazine-3-carboxamide] |  |
|  |  |  | 0.0 | 0.1 | CCOc1cccc(-c2ccccc2CN2CCN(c3ccc(C(=O)NS(=O)(=O)CCC(F)(F)F)cc3)CC2)c1 [B2N045-01, 4-[4-[[2-(3-Ethoxyphenyl)phenyl]methyl]piperazin-1-yl]-N-(3,3,3-trifluoropropylsulfonyl)benzamide] |  |
|  |  |  | 0.0 | 0.0 | CCOc1cccc(-c2cc(CN3CCN(c4ccc(C(=O)NS(=O)(=O)CCC(F)(F)F)nn4)CC3)cc(OC(C)C)c2)c1 [B2N083-01, 6-[4-[[3-(3-Ethoxyphenyl)-5-propan-2-yloxyphenyl]methyl]piperazin-1-yl]-N-(3,3,3-trifluoropropylsulfonyl)pyridazine-3-carboxamide] |  |
|  |  |  | 32.9 | 27.2 | CCOc1cccc(-c2cc(C(=O)N3CCN(c4ccc(C(=O)NS(=O)(=O)c5ccc(NCCSc6ccccc6)c(C(F)(F)F)c5)nn4)CC3)cc(C(F)(F)F)c2)c1 [B2R017-01, 6-[4-[3-(3-ethoxyphenyl)-5-(trifluoromethyl)benzoyl]piperazin-1-yl]-N-[4-(2-phenylsulfanylethylamino)-3-(trifluoromethyl)phenyl]sulfonylpyridazine-3-carboxamide] |  |
|  | 5.0 | 1.8 |  |  | CCOc1cncc(-c2cc(C(=O)N3CCN(c4ccc(C(=O)N(C)CC56CC7CC(CC(C7)C5)C6)nn4)CC3)cc(C(F)(F)F)c2)c1 [B3A018-01, N-(1-Adamantylmethyl)-6-[4-[3-(5-ethoxypyridin-3-yl)-5-(trifluoromethyl)benzoyl]piperazin-1-yl]-N-methylpyridazine-3-carboxamide] |  |
